Assays:
fibroblast = conditions: tissue culture cells; cited from earlier work
[1] = test system: spontaneously hypertensive heart failure (SHHF) rats; assay: 8-month progression study in SHHF rats (Example 1); assay type: in vivo, rat; conditions: for LVEDP (left ventricular end-diastolic pressure) / LVESP (left ventricular end-systolic pressure) / LVV-OP: SHHF rats, 8 months in diet; for LVEDP (left ventricular end-diastolic pressure) / LVESP (left ventricular end-systolic pressure): PD 166793 5 mg/kg/day, quinapril 10 mg/kg/day or both; for LVV-OP: left ventricular pressure volume relations, KCl arrested heart
Procedure: Five groups of rats (n=14 per group) were tested: 17-month-old normotensive Fischer control Rats (F-1 7); vehicle treated 17-month-old SHHF Rats (SHHF-17); PD 166793-0000 (Lot Y) SHHF Rats (SHHF-793); Quinapril (PD 109452-0002, Lot Y) SHHF Rats (SHHF-Q); PD 166793 +Quinapril SHHF Rats (SHHF-793Q). Naive Fischer rats were acclimatized 2 weeks prior to testing. All SHHF rats were maintained in-house, administered drug for 8 months, and then cardiovascular tests were performed and tissue samples taken. The primary endpoint for the study was the prevention of cardiac dilation as determined by left ventricular pressure volume relations in the excised KCI arrested heart.
Drug Administration: All SHHF rats were fed powdered rat chow for 1 week prior to drug administration, and daily food consumption was measured by weighing the foodcups. Drug was added to powdered rat chow so that rats consumed their daily dose of PD 166793 (5 mg/kg/day), quinapril (10 mg/kg/day), or both drugs in combination. Food consumption was monitored twice weekly.
Terminal Cardiovascular Test: Rats were anesthetized with isoflurane for terminal testing. Isoflurane was administered using a mask until the rats are anesthetized and a tracheotomy performed. The rats were respired using a ventilator (A.D.S. 1000, Engler Engineering Corp., Hialeah, Fla.). Cardiac function was assessed in closed-chest rats by measuring LV dP/dt, LV end-diastolic pressure (EDP), heart rate, and aortic blood pressure using a Millar pressure transducer inserted through the right carotid. Physiological data was recorded at 500 Hz, and a logging rate of 5 seconds was used to average data. […] Baseline measurements were made when the rats reached a stable plateau of anesthesia. Normotensive rats had their blood pressure increased by partial occlusion of the aorta so that cardiovascular function could be assessed at a pressure of 180 mmHg, the projected blood pressure of SHHF rats. Approximately 4 to 5 mL of blood were withdrawn in ice-cold syringes and then transferred to ice-cold EDTA tubes. Blood was centrifuged at 4500 RPM for 10 minutes so that plasma could be stored for drug measurements, and measuring collagen breakdown products. The heart was arrested with KCl and rapidly excised. A glass cannula was inserted through the aorta into the LV chamber, and secured into place by a ligature around the atrio-ventricular groove. Cardiac dilation was measured by generating left ventricular pressure volume (PV) curves. The PV curves was generated by evacuating the LV of saline and then filling the LV at a fixed rate using a programmable pump set at a 1 mL/min flow rate. The PV curves were recorded on a Po-Ne-Mah digital data acquisition system. A 2 to 3 mm cross-section of the heart was removed (at the level of the papillary muscles). The remainder of the heart was rapidly divided into RV and LV tissue that was frozen in liquid N2 for subsequent weighing and biochemical analysis. The cross-sections were fixed in buffered formalin for histology. This procedure will allow LV, and RV weights to be determined and hypertrophy to be assessed.

[2] = PD 166793 plasma levels in SHHF rats (Example 1); assay type: in vivo; conditions: rat, po, 5 mg/kg/day PD 166793 in diet, 8 months
Procedure: Drug Administration: […] Food consumption was monitored twice weekly. Terminal Cardiovascular Test: Rats were anesthetized with isoflurane for terminal testing. Isoflurane was administered using a mask until the rats are anesthetized and a tracheotomy performed. The rats were respired using a ventilator ([…] Engineering Corp., Hialeah, Fla.). Cardiac function was assessed in closed-chest rats by measuring LV dP/dt, LV end-diastolic pressure (EDP), heart rate, and aortic blood pressure using a Millar pressure transducer inserted through the right carotid. Physiological data was recorded at 500 Hz, and a logging rate of 5 seconds was used to average data. […] Baseline measurements were made when the rats reached a stable plateau of anesthesia. […] Approximately 4 to 5 mL of blood were withdrawn in ice-cold syringes and then transferred to ice-cold EDTA tubes. […] The heart was arrested with KCl and rapidly excised. A glass cannula was inserted through the aorta into the LV chamber, and secured into place by a ligature around the atrio-ventricular groove. Cardiac dilation was measured by generating left ventricular pressure volume (PV) curves. […] The PV curves were recorded on a Po-Ne-Mah digital data acquisition system. […] This procedure will allow LV, and RV weights to be determined and hypertrophy to be assessed.

[3] = test system: pigs subjected to rapid pacing; assay: rapid-paced pig model of heart failure (Example 2); assay type: in vivo; conditions: for LV End-Systolic Pressure / Pulmonary Vascular Resistance / Systemic Vascular Resistance / Plasma Norepinephrine: Day 21 of pacing, 793 2 mg/kg/day PO, F […] BID PO; for LV End-Systolic Pressure / Pulmonary Vascular Resistance / Systemic Vascular Resistance: pacer off; for LV End-Systolic Pressure / Plasma Norepinephrine: spread printed in the next line; for Pulmonary Vascular Resistance / Systemic Vascular Resistance: spread printed in the next lines; for LV end-diastolic dimension (dilation), in words / LV wall stress, in words: echocardiography, 3-week pacing period
[4] = test system: spontaneously hypertensive heart failure (SHHF) rats; assay: previous 4-month experiment in SHHF rats; assay type: in vivo, rat; conditions: for cardiac dilation, in words / left ventricular (LV) systolic function, in words: 4 months
in vivo = conditions: pig, po, 2 mg/kg/day
MMP-3 (stromelysin) = MMP-3 (stromelysin) (Homo sapiens, UniProt P08254); assay: thiopeptolide substrate hydrolysis assay, MMP-3; assay type: biochemical; conditions: pH 6.0, 22° C., read-out: IC50 MMP3
Procedure: The assays measure the amount by which a test compound reduces the hydrolysis of a thiopeptolide substrate caused by a matrix metalloproteinase enzyme.
Thiopeptolide substrates show virtually no decomposition or hydrolysis in the absence of a matrix metalloproteinase enzyme. A typical thiopeptolide substrate commonly utilized for assays is Ac-Pro-Leu-Gly-thioester-Leu-Leu-Gly-O Et. […] Assays are carried out with and without matrix metalloproteinase inhibitor compounds, and the amount of hydrolysis is compared for a determination of inhibitory activity of the test compounds.

[5] = relative to untreated rapid-paced pigs, FIG. 5

Sequence of MMP-3 (stromelysin) (P08254 100-272 limits assumed): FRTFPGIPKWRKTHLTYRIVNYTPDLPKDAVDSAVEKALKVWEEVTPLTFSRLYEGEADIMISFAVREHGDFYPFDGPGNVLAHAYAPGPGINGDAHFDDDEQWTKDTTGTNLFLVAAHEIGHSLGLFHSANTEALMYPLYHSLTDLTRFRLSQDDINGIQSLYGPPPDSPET

| SMILES | LVEDP (left ventricular end-diastolic pressure) [1] [mmHg] | LVESP (left ventricular end-systolic pressure) [1] [mmHg] | LVV-OP [1] [µL] | LV End-Systolic Pressure [3] [mmHg] | Pulmonary Vascular Resistance [3] [dynes*s*cm^-5] | Systemic Vascular Resistance [3] [dynes*s*cm^-5] | Plasma Norepinephrine [3] [pg/mL] | LV end-diastolic dimension (dilation), in words [3] | LV wall stress, in words [3] | cardiac dilation, in words [4] | left ventricular (LV) systolic function, in words [4] | also measured |
| --- | --- | --- | --- | --- | --- | --- | --- | --- | --- | --- | --- | --- |
| NNC(=O)c1ccccc1 [Benzoic hydrazide, benzoic hydrazide] | – | – | – | – | – | – | – | – | – | – | – | collagen synthesis, in words (fibroblast): suppress collagen synthesis; fibroblast proliferation, in words (fibroblast): suppress collagen synthesis and fibroblast proliferation |
| CC(C)C(NS(=O)(=O)c1ccc(-c2ccc(Br)cc2)cc1)C(=O)O (stereo not shown) [PD 166793, 2-(4'-bromobiphenyl-4-sulfonylamino)-3-methyl-butyric acid] | 18 ± 3 | 188 ± 8 | 820 ± 58 | 110 | 417 | 2784 | 736 | reduce wall stress and end diastolic dimension | reduce wall stress | significantly reducing cardiac dilation | maintaining left ventricular (LV) systolic function | concentration at 5840 h [2]: 50.1 ± 7.1 µg/mL; LV chamber stiffness, in words [3, 5]: increased both LV chamber stiffness and myocardial stiffness; myocardial stiffness, in words [3, 5]: increased both LV chamber stiffness and myocardial stiffness; mechanism (vasodilator, anti-hypertrophic), in words [4]: neither a vasodilator, nor an anti-hypertrophic; concentration at 1 h (in vivo): 10.8 ± 1.2 µg/mL |
| CC(C)CC(CC(=O)NO)C(=O)N[C@@H](CC(C)C)C(=O)N[C@@H](Cc1ccccc1)C(N)=O (stereo partly shown) [U24522] | – | – | – | – | – | – | – | – | – | – | – | IC50 (MMP-3 (stromelysin)): 0.02 µM |
| CCC(=O)O[C@@H](O[P@](=O)(CCCCc1ccccc1)CC(=O)N1C[C@H](C2CCCCC2)C[C@H]1C(=O)O)C(C)C [fosinopril] | – | – | – | 100 | 266 | 1529 | 618 | reduce wall stress and end diastolic dimension | reduce wall stress | – | – | systolic function, slope of circumferential velocity over end-systolic stress relation (Vcfc-ES Stress), in words ([3]; compared to nontreated rapid-paced animals, FIG. 4): significantly improved systolic function; LV end-diastolic dimension (dilation), in words ([3]; listed as Fosinopril): more effective than the PD 166793 in reducing dilation; systolic function measured as preload recruitable stroke work (PRSW), in words ([3]; rapid-paced pigs, FIG. 3): improved systolic function to the greatest extent |
| CCOC(=O)[C@H](CCc1ccccc1)N[C@@H](C)C(=O)N1Cc2ccccc2C[C@H]1C(=O)O [quinapril] | 17 ± 4 | 190 ± 7 | 603 ± 99 | – | – | – | – | – | – | A similar effect was also observed | A similar effect was also observed | LV weight, in words ([1]; compared to the vehicle control group): reduced |

— US6133304A, “ACE inhibitor-MMP inhibitor combinations” (priority 2000, dated 2000)
